Data as given in the supplement of paper PMC10307832.

Legend:
Assay in all cases: relative viability (nuclei count vs DMSO), 5 days (fraction); higher = more cells survive
[1] = compound: Cc1cc([C@@H](C)Nc2ccccc2C(=O)O)c2nc(N3CCOCC3)cc(=O)n2c1 [AZD6482] + COc1cccc2cc(-c3nc([C@H]4CC[C@H](C(=O)O)CC4)n4ncnc(N)c34)[nH]c12 [OSI-027] (partner 0.5 µM)
Procedure, shortened: (§1)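 Values are medians from duplicate plates. Each reflects relative viability, defined as the nuclei count of treated wells over that of vehicle wells. Lung cancer cell lines in 1536-well plates were pin-tool dosed one day after seeding with one drug alone or with a fixed anchor-drug dose plus five library-drug doses (not always all listed) in √10 steps, then fixed, stained and imaged at 4× after 5 days.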

[2] = compound: COc1cc2nc(N3CCCN(C)CC3)nc(NC3CCN(Cc4ccccc4)CC3)c2cc1OC + C[C@@H](Oc1cc(-c2cnn(C3CCNCC3)c2)cnc1N)c1c(Cl)ccc(F)c1Cl [Crizotinib] (partner 1 µM)
Procedure, shortened: as §1

[3] = compound: COc1cc2nc(N3CCCN(C)CC3)nc(NC3CCN(Cc4ccccc4)CC3)c2cc1OC + CCNC(=O)c1noc(-c2cc(C(C)C)c(O)cc2O)c1-c1ccc(CN2CCOCC2)cc1 [Luminespib] (partner 0.01 µM)
Procedure, shortened: as §1

[4] = compound: COc1cc2nc(N3CCCN(C)CC3)nc(NC3CCN(Cc4ccccc4)CC3)c2cc1OC + Nc1nc2[nH]cc(CCc3ccc(C(=O)N[C@@H](CCC(=O)O)C(=O)O)cc3)c2c(=O)[nH]1 [Pemetrexed] (partner 0.2 µM)
Procedure, shortened: as §1

Cell Line | relative viability ([1]; first compound 0.08 µM) | relative viability ([1]; first compound 0.253 µM) | relative viability ([1]; first compound 0.8 µM) | relative viability ([1]; first compound 2.53 µM) | relative viability ([1]; first compound 8 µM) | relative viability ([2]; first compound 0.2 µM) | relative viability ([2]; first compound 0.6325 µM) | relative viability ([2]; first compound 2 µM) | relative viability ([2]; first compound 6.325 µM) | relative viability ([3]; first compound 0.2 µM) | relative viability ([3]; first compound 0.6325 µM) | relative viability ([3]; first compound 2 µM) | relative viability ([3]; first compound 6.325 µM) | relative viability ([4]; first compound 0.2 µM) | relative viability ([4]; first compound 0.6325 µM) | relative viability ([4]; first compound 2 µM) | relative viability ([4]; first compound 6.325 µM)
201T | 0.657 | 0.663 | 0.631 | 0.462 | 0.601 | 0.995 | 1.1 | 1.04 | 0.995 | 1.09 | 1.12 | 1.1 | 1.08 | 0.31 | 0.334 | 0.335 | 0.279
A549 | – | – | – | – | – | 0.803 | 0.638 | 0.966 | 0.736 | – | – | – | – | – | – | – | –
A-427 | 0.458 | 0.348 | 0.52 | – | 0.423 | 0.861 | 0.781 | 1.04 | 0.838 | 0.934 | 0.784 | 0.8 | 0.997 | 0.899 | 1 | 1.03 | 1.03
ABC-1 | 0.51 | 0.478 | 0.358 | 0.401 | 0.406 | 1.01 | 1.01 | 1.05 | 1.15 | 0.588 | 0.52 | 0.512 | 0.737 | – | – | – | –
BEN | 0.314 | 0.302 | 0.273 | 0.276 | 0.299 | 0.923 | 0.892 | 0.944 | 0.963 | 0.415 | 0.737 | 0.264 | 0.516 | 0.827 | 0.943 | 1.01 | 0.716
CAL-12T | 0.706 | 0.715 | 0.519 | 0.348 | 0.342 | 0.529 | 0.464 | 0.753 | 0.477 | 0.441 | 0.308 | 0.337 | 0.28 | 1.23 | 1.01 | 1.19 | 1.04
COR-L23 | 0.552 | 0.791 | 0.911 | 0.611 | 0.751 | 0.471 | 0.562 | 0.711 | 0.673 | 0.752 | 0.731 | 0.761 | 0.614 | 0.205 | 0.21 | 0.208 | 0.199
COR-L 105 | 0.75 | 0.742 | 0.577 | 0.33 | 0.517 | 0.653 | 0.872 | 0.878 | 0.455 | 0.948 | 0.899 | 1.02 | 0.469 | 1.08 | 1.22 | 1.15 | 0.798
Calu-6 | – | – | – | – | – | 0.75 | 0.676 | 0.814 | 0.67 | – | – | – | – | – | – | – | –
ChaGo-K-1 | 0.634 | 0.323 | 0.539 | 0.477 | 0.49 | 1.18 | 1.11 | 1.14 | 1.09 | 0.569 | 0.671 | 0.74 | 0.527 | 0.255 | 0.256 | 0.262 | 0.264
EBC-1 | – | – | – | – | – | 0.241 | 0.181 | 0.147 | 0.177 | – | – | – | – | – | – | – | –
EKVX | 0.624 | 0.62 | 0.684 | 0.387 | 0.434 | 1.08 | 0.887 | 1.05 | 0.9 | 0.829 | 0.878 | 0.831 | 0.888 | 0.422 | 0.404 | 0.404 | 0.41
EMC-BAC-2 | 0.394 | 0.376 | 0.347 | 0.273 | 0.316 | 0.729 | 0.747 | 0.843 | 0.824 | 1.09 | 1.17 | 1.2 | 1.14 | 0.437 | 0.402 | 0.413 | 0.486
EPLC-272H | 0.29 | 0.235 | 0.345 | 0.214 | 0.255 | 0.811 | 0.915 | 1.05 | 0.785 | 0.228 | 0.736 | 0.262 | 0.432 | 0.335 | 0.403 | 0.397 | 0.365
H3255 | 0.618 | 0.53 | 0.554 | 0.411 | 0.392 | 0.781 | 0.894 | 1.03 | 0.856 | 1.14 | 0.852 | 0.878 | 0.898 | 0.563 | 0.557 | 0.595 | 0.547
HARA | 0.318 | 0.528 | 0.633 | 0.249 | 0.376 | 1.01 | 1.02 | 1.18 | 1.13 | 0.703 | 0.467 | 0.744 | 0.736 | 0.258 | 0.227 | 0.227 | 0.269
HCC-15 | 0.672 | 0.61 | 0.666 | 0.385 | 0.485 | 0.817 | 0.82 | 0.823 | 0.711 | 0.174 | 0.205 | 0.342 | 0.241 | 0.216 | 0.225 | 0.214 | 0.208
HCC-44 | 0.46 | 0.511 | 0.574 | 0.37 | 0.296 | 0.839 | 0.721 | 0.813 | 0.819 | 0.96 | 1.08 | 1.34 | 1.34 | 0.67 | 0.636 | 0.611 | 0.646
HCC-78 | 0.316 | 0.315 | 0.32 | 0.265 | 0.303 | 0.333 | 0.377 | 0.332 | 0.352 | – | – | – | – | 0.912 | 0.899 | 0.918 | 1.01
HCC-366 | 1.01 | 0.801 | 0.906 | 0.574 | 0.515 | 0.566 | 0.515 | 0.644 | 0.567 | – | – | – | – | 0.186 | 0.151 | 0.171 | 0.164
HCC-827 | 0.709 | 0.658 | 0.8 | 0.451 | 0.48 | 0.886 | 0.944 | 0.917 | 0.918 | 0.627 | 0.555 | 0.634 | 0.612 | 0.259 | 0.277 | 0.215 | 0.235
